Reference: the supplement of paper PMC6045584
± gives the standard deviation of the averaged measurements.

How the values were obtained:
[1] = compound: CO[C@H]1C[C@@H]2CC[C@@H](C)[C@@](O)(O2)C(=O)C(=O)N2CCCC[C@H]2C(=O)O[C@H]([C@H](C)C[C@@H]2CC[C@@H](OCCO)[C@H](OC)C2)CC(=O)[C@H](C)/C=C(\C)[C@@H](O)[C@@H](OC)C(=O)[C@H](C)C[C@H](C)/C=C/C=C/C=C/1C [EVEROLIMUS]; assay: surviving fraction relative to DMSO-only wells; higher = less growth inhibition; conditions: exposure time: 5 days
Procedure, shortened: (§1)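 Tumour cell lines were seeded in log phase at 250–500 cells per well into 384-well plates. Starting 24 hours later, inhibitors were present continuously for five days at 0.5, 1, 5, 10, 50, 100, 500 and 1000 nM. Surviving fraction, from CellTiter-Glo luminescence, is normalised to the median of DMSO-only wells. Three screens per line were required, with replicate Pearson r >0.7 and median Z' >0.3 for a line to be kept.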

[2] = compound: O=C(NOCC1CC1)c1ccc(F)c(F)c1Nc1ccc(I)cc1Cl; assay: as above; conditions: exposure time: 5 days
Procedure, shortened: as §1

| Test System | surviving fraction ([1]; 0.5 nM) | surviving fraction ([1]; 1 nM) | surviving fraction ([1]; 5 nM) | surviving fraction ([1]; 10 nM) | surviving fraction ([1]; 50 nM) | surviving fraction ([1]; 100 nM) | surviving fraction ([1]; 500 nM) | surviving fraction ([1]; 1000 nM) | surviving fraction ([2]; 0.5 nM) | surviving fraction ([2]; 1 nM) | surviving fraction ([2]; 5 nM) | surviving fraction ([2]; 10 nM) | surviving fraction ([2]; 50 nM) | surviving fraction ([2]; 100 nM) | surviving fraction ([2]; 500 nM) | surviving fraction ([2]; 1000 nM) |
| --- | --- | --- | --- | --- | --- | --- | --- | --- | --- | --- | --- | --- | --- | --- | --- | --- |
| SG31 HEADNECK | 0.931 ± 0.077 | 0.905 ± 0.11 | 0.638 ± 0.041 | 0.62 ± 0.01 | 0.641 ± 0.035 | 0.591 ± 0.1 | 0.539 ± 0.035 | 0.574 ± 0.047 | 1.02 ± 0.087 | 0.977 ± 0.097 | 0.951 ± 0.14 | 1.06 ± 0.18 | 0.778 ± 0.12 | 0.756 ± 0.11 | 0.575 ± 0.032 | 0.547 ± 0.088 |
| SG32 HEADNECK | 1.22 ± 0.19 | 1.22 ± 0.15 | 1.44 ± 0.47 | 1.01 ± 0.14 | 0.813 ± 0.052 | 0.601 ± 0.082 | 0.556 ± 0.025 | 0.499 ± 0.026 | 0.546 ± 0.12 | 0.858 ± 0.042 | 0.883 ± 0.22 | 1.03 ± 0.049 | 0.701 ± 0.085 | 0.805 ± 0.065 | 0.751 ± 0.059 | 0.818 ± 0.079 |
| SG43 HEADNECK | 1.18 ± 0.069 | 0.963 ± 0.053 | 0.943 ± 0.035 | 0.833 ± 0.13 | 0.874 ± 0.073 | 0.872 ± 0.13 | 0.908 ± 0.13 | 0.882 ± 0.071 | 1.05 ± 0.079 | 0.969 ± 0.011 | 0.853 ± 0.17 | 0.676 ± 0.16 | 0.567 ± 0.1 | 0.521 ± 0.06 | 0.387 ± 0.07 | 0.333 ± 0.064 |
| SIHA CERVIX | 0.822 ± 0.043 | 0.741 ± 0.04 | 0.64 ± 0.02 | 0.973 ± 0.61 | 0.605 ± 0.061 | 0.592 ± 0.049 | 0.498 ± 0.044 | 0.499 ± 0.008 | 0.754 ± 0.016 | 0.8147 ± 0.0075 | 0.955 ± 0.058 | 0.923 ± 0.027 | 0.899 ± 0.018 | 0.873 ± 0.06 | 0.709 ± 0.042 | 0.765 ± 0.067 |
| SJSA1 BONE | 1.58 ± 0.029 | 1.72 ± 0.099 | 1.5 ± 0.24 | 1.63 ± 0.07 | 1.38 ± 0.023 | 1.7 ± 0.048 | 1.38 ± 0.26 | 1.73 ± 0.11 | 1.05 ± 0.036 | 1.06 ± 0.035 | 1.119 ± 0.0046 | 1.11 ± 0.013 | 0.968 ± 0.025 | 0.925 ± 0.027 | 0.742 ± 0.028 | 0.591 ± 0.046 |
| SKBR3 BREAST | 0.615 ± 0.048 | 0.561 ± 0.009 | 0.414 ± 0.021 | 0.389 ± 0.015 | 0.37 ± 0.03 | 0.316 ± 0.016 | 0.312 ± 0.021 | 0.295 ± 0.018 | 1.12 ± 0.17 | 1.1 ± 0.13 | 1.11 ± 0.07 | 1.1 ± 0.26 | 1.08 ± 0.19 | 1.05 ± 0.14 | 1.06 ± 0.14 | 1.05 ± 0.13 |
| SNU475 LIVER | 0.489 ± 0.032 | 0.447 ± 0.028 | 0.41 ± 0.042 | 0.364 ± 0.018 | 0.381 ± 0.028 | 0.35 ± 0.01 | 0.303 ± 0.0065 | 0.343 ± 0.017 | 0.432 ± 0.042 | 0.908 ± 0.038 | 0.802 ± 0.022 | 0.941 ± 0.018 | 0.439 ± 0.015 | 0.883 ± 0.013 | 0.676 ± 0.018 | 0.741 ± 0.039 |
| SUM44 BREAST | 0.853 ± 0.24 | 0.723 ± 0.16 | 0.718 ± 0.12 | 0.713 ± 0.12 | 0.819 ± 0.25 | 0.804 ± 0.16 | 0.723 ± 0.17 | 0.711 ± 0.11 | 0.951 ± 0.042 | 0.954 ± 0.062 | 1.04 ± 0.013 | 1.05 ± 0.032 | 1.07 ± 0.064 | 1.03 ± 0.043 | 1.02 ± 0.082 | 1.03 ± 0.047 |
| SUM149 BREAST | 0.844 ± 0.035 | 0.671 ± 0.098 | 0.536 ± 0.068 | 0.523 ± 0.079 | 0.462 ± 0.039 | 0.411 ± 0.04 | 0.403 ± 0.023 | 0.335 ± 0.03 | 0.375 ± 0.011 | 1.04 ± 0.067 | 0.908 ± 0.059 | 0.912 ± 0.032 | 0.512 ± 0.024 | 0.755 ± 0.1 | 0.407 ± 0.031 | 0.277 ± 0.053 |
| SUM149.B1*.S BREAST | 1.11 ± 0.032 | 1.06 ± 0.034 | 1.04 ± 0.039 | 0.754 ± 0.082 | 0.696 ± 0.16 | 0.681 ± 0.17 | 0.698 ± 0.13 | 0.653 ± 0.13 | 0.5813 ± 0.0045 | 0.956 ± 0.018 | 0.835 ± 0.058 | 0.945 ± 0.034 | 0.6543 ± 0.0045 | 0.789 ± 0.0088 | 0.503 ± 0.024 | 0.459 ± 0.05 |
